This assay has as its target T1, TLR7 (Homo sapiens, UniProt Q9NYK1).
T1 sequence (Q9NYK1 27-1049): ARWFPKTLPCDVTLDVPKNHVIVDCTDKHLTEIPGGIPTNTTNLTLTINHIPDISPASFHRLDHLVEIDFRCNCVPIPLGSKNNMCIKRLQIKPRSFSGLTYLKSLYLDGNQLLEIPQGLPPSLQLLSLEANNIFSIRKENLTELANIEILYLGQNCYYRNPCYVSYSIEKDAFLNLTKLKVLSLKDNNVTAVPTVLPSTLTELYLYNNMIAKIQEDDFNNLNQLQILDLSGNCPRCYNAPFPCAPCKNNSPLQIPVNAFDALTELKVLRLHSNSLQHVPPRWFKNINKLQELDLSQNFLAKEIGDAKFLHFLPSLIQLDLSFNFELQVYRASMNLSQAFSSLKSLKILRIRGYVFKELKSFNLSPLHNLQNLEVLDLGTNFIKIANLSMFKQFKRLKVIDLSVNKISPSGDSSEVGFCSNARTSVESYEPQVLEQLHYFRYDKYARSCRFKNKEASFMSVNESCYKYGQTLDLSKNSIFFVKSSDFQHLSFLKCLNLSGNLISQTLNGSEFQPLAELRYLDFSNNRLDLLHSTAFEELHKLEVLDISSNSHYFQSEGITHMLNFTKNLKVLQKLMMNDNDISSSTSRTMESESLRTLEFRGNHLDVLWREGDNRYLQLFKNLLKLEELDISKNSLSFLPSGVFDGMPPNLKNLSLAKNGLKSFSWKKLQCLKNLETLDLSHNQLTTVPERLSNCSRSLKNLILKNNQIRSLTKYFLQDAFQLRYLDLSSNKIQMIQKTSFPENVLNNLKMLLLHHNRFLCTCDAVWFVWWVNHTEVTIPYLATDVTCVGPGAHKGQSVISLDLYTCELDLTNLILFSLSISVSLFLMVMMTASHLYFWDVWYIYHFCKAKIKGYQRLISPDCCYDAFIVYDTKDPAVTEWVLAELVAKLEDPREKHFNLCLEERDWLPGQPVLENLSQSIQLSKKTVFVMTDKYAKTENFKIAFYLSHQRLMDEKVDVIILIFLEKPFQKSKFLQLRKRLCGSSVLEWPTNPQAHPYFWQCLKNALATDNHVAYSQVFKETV
The experiment in a line: HEK293 TLR7/NFKb reporter cell assay with R848 agonist. Format: cell-based. Also on record: expressed in transfected cells; host or cells: HEK293. Here is the method:
Into 384 CulturePlates (Corning 3707) was placed 5000 c/w of HEK293 TLR7/NFKb reporter cells in 30 µL DMEM without phenol red and 10% i.a. FCS and 2 mM L-glutamine. The cells were incubated for 24 h at 37° C., 10% carbon dioxide and 90% relative humidity. 3 µL of controls, standards, and compounds were dispensed to wells, incubated for 30 min then 3 µL of R848 agonist (Resiquimod) in 20 mM HEPES buffer was added. After incubation for 5 hours, it was allowed to stand at room temperature for 15 min. 10 µL of Steady-Glo substrate reagent was added and assay plates were shaken for 5 min at 1500 rpm. The assay plate was allowed to sit for 30 min at room temperature and then read on an EnVision plate reader.

Like-named read-outs stand apart in the source and are kept apart here.

For `COc1ccc2nc3cc(Cl)ccc3c(Nc3cc(CN4CCCC4)c(O)c(CN4CCCC4)c3)c2n1` [Compound 1, Pyronaridine], the IC50 was less than 1 µM (Example 4 results table, assay/readout not specified, read-out: Potency) and 5 µM (HEK293 TLR7/NFKb reporter cells, R848 agonist, read-out: IC50 TLR7 (IL6 READOUT) HEK TRANSFECTED).

These data come from patent US20230301981A1, “TLR7/8 ANTAGONISTS AND USES THEREOF” (Merck Patent GmbH, priority 2020, published 2023).
